≈ marks a conversion by molar mass, not a printed value.
Legend:
Assay in all cases: Minimum Inhibitory Concentration (MIC), RPMI medium
Assay type in all cases: cell-based
[1] = tested on: A. fumigatus; conditions: Aspergillus fumigatus, >80% growth inhibition
Experimental: (§1) Between 1 and 5 mgs of the compound were accurately weighed out into a sterile Eppendorf tube. The compound was dissolved in DMSO to give a solution containing 5 mg/mL. Tubes were stored at −20° C. until required.
(§2) On the day of testing thawed solutions were vortex mixed to ensure homogeneity. 30 μL of solution was removed and added to 570 μL of sterile water in a separate sterile Eppendorf. The thoroughly mixed solution was used to prepare a series of doubling dilutions in water, in a deep well plate. Thirteen replicate plates were prepared using a Minitrak by aspirating 20 μL from each well into eleven clear polystyrene 96 well plates.
(§3) Spores of Aspergillus and Scedosporium were harvested from cultures grown on Sabarauds agar for 5 days, and resuspended in PBS/Tween 80 to approx 1×10^7 cfu/mL. Each organism suspension was diluted in RPMI medium, containing 2% glucose and 0.135 M MOPS buffer (pH 7.0) to 0.5-2×10^4 cfu/mL. 80 μL of an organism suspension was added to each well of the plate containing drug dilutions.
(§4) This produced MIC plates with a drug range 50-0.05 mg/L and organism inocula of 1-2×10^4 cfu/mL. All plates were incubated for 24-48 h at 35° C. Growth was assessed by monitoring the optical density at 485 nm for each well. The MIC of a compound is the lowest drug concentration that inhibits growth of an organism by >80% compared with a drug free control.

[2] = tested on: A. flavus; conditions: Aspergillus flavus, >80% growth inhibition
Experimental: as §1, §2, §3, §4

[3] = tested on: A. terreus; conditions: Aspergillus terreus, >80% growth inhibition
Experimental: as §1, §2, §3, §4

[4] = tested on: A. terreus 49; conditions: Aspergillus terreus, >80% growth inhibition
Experimental: as §1, §2, §3, §4

[5] = tested on: A. fumigatus 210; conditions: Aspergillus fumigatus, >80% growth inhibition
Experimental: as §1, §2, §3, §4

[6] = tested on: A. niger; conditions: Aspergillus niger, >80% growth inhibition
Experimental: as §1, §2, §3, §4

Cc1cc(C)nc(N2CCN(c3ccc(NC(=O)C(=O)c4c(-c5ccccc5)cc(C)n4C)c(Cl)c3)CC2)c1 [Ref. Example 8, N-{2-Chloro-4-[4-(4,6-dimethyl-pyridin-2-yl)-piperazin-1-yl]-phenyl}-2-(1,5-dimethyl-3-phenyl-1H-pyrrol-2-yl)-2-oxo-acetamide]
MIC [1]: 0.04 to 0.06 µg/mL (≈ 0.0738 to 0.111 µM) | MIC [2]: 0.04 to 0.06 µg/mL (≈ 0.0738 to 0.111 µM) | MIC [3]: 0.04 to 0.06 µg/mL (≈ 0.0738 to 0.111 µM) | MIC [4]: 0.04 to 0.06 µg/mL (≈ 0.0738 to 0.111 µM) | MIC [5]: 0.04 to 0.06 µg/mL (≈ 0.0738 to 0.111 µM) | MIC [6]: 0.04 to 0.06 µg/mL (≈ 0.0738 to 0.111 µM)

Cc1cc(-c2ccccc2)c(C(=O)C(=O)Nc2ccc(N3CCN(c4ccccn4)CC3)cc2F)n1C [Ref. Example 2, 2-(1,5-Dimethyl-3-phenyl-1H-pyrrol-2-yl)-N-[2-fluoro-4-(4-pyridin-2-yl-piperazin-1-yl)-phenyl]-2-oxo-acetamide]
MIC [1]: 0.04 to 0.06 µg/mL (≈ 0.0804 to 0.121 µM) | MIC [2]: 0.04 to 0.06 µg/mL (≈ 0.0804 to 0.121 µM) | MIC [3]: 0.04 to 0.06 µg/mL (≈ 0.0804 to 0.121 µM) | MIC [4]: 0.04 to 0.06 µg/mL (≈ 0.0804 to 0.121 µM) | MIC [5]: 0.04 to 0.06 µg/mL (≈ 0.0804 to 0.121 µM) | MIC [6]: 0.04 to 0.06 µg/mL (≈ 0.0804 to 0.121 µM)

[2H]c1c([2H])c(N2CCN(c3ncc(F)cn3)CC2)c([2H])c([2H])c1NC(=O)C(=O)c1c(-c2ccccc2)cc(C)n1C [Example 4, 2-(1,5-dimethyl-3-phenyl-1H-pyrrol-2-yl)-N-(4-(4-(5-fluoropyrimidin-2-yl)piperazin-1-yl)phenyl-2,3,5,6-d4)-2-oxoacetamide]
MIC [1]: 0.04 to 0.06 µg/mL (≈ 0.0796 to 0.119 µM) | MIC [2]: 0.04 to 0.06 µg/mL (≈ 0.0796 to 0.119 µM) | MIC [3]: 0.04 to 0.06 µg/mL (≈ 0.0796 to 0.119 µM) | MIC [4]: 0.04 to 0.06 µg/mL (≈ 0.0796 to 0.119 µM) | MIC [5]: 0.04 to 0.06 µg/mL (≈ 0.0796 to 0.119 µM) | MIC [6]: 0.04 to 0.06 µg/mL (≈ 0.0796 to 0.119 µM)

Cc1cccc(N2CCN(c3ccc(NC(=O)C(=O)c4c(-c5ccccc5)cc(C)n4C)cc3)CC2)n1 [Ref. Example 5, 2-(1,5-Dimethyl-3-phenyl-1H-pyrrol-2-yl)-N-{4-[4-(6-methyl-pyridin-2-yl)-piperazin-1-yl]-phenyl}-2-oxo-acetamide]
MIC [1]: 0.04 to 0.06 µg/mL (≈ 0.081 to 0.122 µM) | MIC [2]: 0.04 to 0.06 µg/mL (≈ 0.081 to 0.122 µM) | MIC [3]: 0.04 to 0.06 µg/mL (≈ 0.081 to 0.122 µM) | MIC [4]: 0.04 to 0.06 µg/mL (≈ 0.081 to 0.122 µM) | MIC [5]: 0.04 to 0.06 µg/mL (≈ 0.081 to 0.122 µM) | MIC [6]: > 0.06 µg/mL

Cc1ccnc(N2CCN(c3ccc(NC(=O)C(=O)c4c(-c5ccccc5)cc(C)n4C)cc3)CC2)c1 [Ref. Example 4, 2-(1,5-Dimethyl-3-phenyl-1H-pyrrol-2-yl)-N-{4-[4-(4-methyl-pyridin-2-yl)-piperazin-1-yl]-phenyl}-2-oxo-acetamide]
MIC [1]: 0.04 to 0.06 µg/mL (≈ 0.081 to 0.122 µM) | MIC [2]: 0.04 to 0.06 µg/mL (≈ 0.081 to 0.122 µM) | MIC [3]: 0.04 to 0.06 µg/mL (≈ 0.081 to 0.122 µM) | MIC [4]: 0.04 to 0.06 µg/mL (≈ 0.081 to 0.122 µM) | MIC [5]: 0.04 to 0.06 µg/mL (≈ 0.081 to 0.122 µM) | MIC [6]: 0.04 to 0.06 µg/mL (≈ 0.081 to 0.122 µM)

Cc1cc(C)nc(N2CCN(c3ccc(NC(=O)C(=O)c4c(-c5ccccc5)cc(C)n4C)cc3C)CC2)c1 [Ref. Example 3, 2-(1,5-Dimethyl-3-phenyl-1H-pyrrol-2-yl)-N-{4-[4-(4,6-dimethyl-pyridin-2-yl)-piperazin-1-yl]-3-methyl-phenyl}-2-oxo-acetamide]
MIC [1]: 0.04 to 0.06 µg/mL (≈ 0.0767 to 0.115 µM) | MIC [2]: 0.04 to 0.06 µg/mL (≈ 0.0767 to 0.115 µM) | MIC [3]: 0.04 to 0.06 µg/mL (≈ 0.0767 to 0.115 µM) | MIC [4]: 0.04 to 0.06 µg/mL (≈ 0.0767 to 0.115 µM) | MIC [5]: 0.04 to 0.06 µg/mL (≈ 0.0767 to 0.115 µM) | MIC [6]: 0.04 to 0.06 µg/mL (≈ 0.0767 to 0.115 µM)

Cc1cc(C)nc(N2CCN(c3ccc(NC(=O)C(=O)c4c(-c5ccccc5)cc(C)n4C)cc3Cl)CC2)c1 [Ref. Example 9, N-{3-Chloro-4-[4-(4,6-dimethyl-pyridin-2-yl)-piperazin-1-yl]-phenyl}-2-(1,5-dimethyl-3-phenyl-1H-pyrrol-2-yl)-2-oxo-acetamide]
MIC [1]: 0.04 to 0.06 µg/mL (≈ 0.0738 to 0.111 µM) | MIC [2]: 0.04 to 0.06 µg/mL (≈ 0.0738 to 0.111 µM) | MIC [3]: 0.04 to 0.06 µg/mL (≈ 0.0738 to 0.111 µM) | MIC [4]: 0.04 to 0.06 µg/mL (≈ 0.0738 to 0.111 µM) | MIC [5]: 0.04 to 0.06 µg/mL (≈ 0.0738 to 0.111 µM) | MIC [6]: 0.04 to 0.06 µg/mL (≈ 0.0738 to 0.111 µM)

[2H]C1([2H])N(c2ccc(NC(=O)C(=O)c3c(-c4ccccc4)cc(C)n3C)cc2)C([2H])([2H])C([2H])([2H])N(c2ncc(F)cn2)C1([2H])[2H] [Example 3, 2-(1,5-dimethyl-3-phenyl-1H-pyrrol-2-yl)-N-(4-(4-(5-fluoropyrimidin-2-yl)piperazin-1-yl-2,2,3,3,5,5,6,6-d8)phenyl)-2-oxoacetamide]
MIC [1]: 0.04 to 0.06 µg/mL (≈ 0.079 to 0.118 µM) | MIC [2]: 0.04 to 0.06 µg/mL (≈ 0.079 to 0.118 µM) | MIC [3]: 0.04 to 0.06 µg/mL (≈ 0.079 to 0.118 µM) | MIC [4]: 0.04 to 0.06 µg/mL (≈ 0.079 to 0.118 µM) | MIC [5]: 0.04 to 0.06 µg/mL (≈ 0.079 to 0.118 µM) | MIC [6]: 0.04 to 0.06 µg/mL (≈ 0.079 to 0.118 µM)
